# “And” between values parts separate entries of the source, which are not always exact repeats. Equal entries are not always repeated. Where two headings read alike, the source gives them in different places.
structure (smiles),measurement,setting,value
"CC(C)NC(=O)COc1cccc(-c2nc(Nc3ccc4[nH]ncc4c3)c3ccccc3n2)c1 [Belumosudil, 2-{3-[4-(1H-indazol-5-ylamino)-2-quinazolinyl]phenoxy}-N-(propan-2-yl) acetamide]",Thrombocytosis: # Events,Cohort 3 400 mg QD,0
same,Thrombocytosis: Affected/At Risk,Cohort 3 400 mg QD,0/21
same,Thrombocytosis: Affected/At Risk (%),Cohort 3 400 mg QD,(0%)
same,Tinea pedis: # Events,Cohort 3 400 mg QD,0
same,Tinea pedis: Affected/At Risk,Cohort 3 400 mg QD,0/21
same,Tinea pedis: Affected/At Risk (%),Cohort 3 400 mg QD,(0%)
same,Tooth fracture: # Events,Cohort 3 400 mg QD,0
same,Tooth fracture: Affected/At Risk,Cohort 3 400 mg QD,0/21
same,Tooth fracture: Affected/At Risk (%),Cohort 3 400 mg QD,(0%)
same,Total Other Adverse Events: Affected/At Risk,Cohort 3 400 mg QD,19/21
same,Total Other Adverse Events: Affected/At Risk (%),Cohort 3 400 mg QD,(90.48%)
same,Transfusion reaction: # Events,Cohort 3 400 mg QD,0
same,Transfusion reaction: Affected/At Risk,Cohort 3 400 mg QD,0/21
same,Transfusion reaction: Affected/At Risk (%),Cohort 3 400 mg QD,(0%)
same,Tremor: # Events,Cohort 3 400 mg QD,4
same,Tremor: Affected/At Risk,Cohort 3 400 mg QD,3/21
same,Tremor: Affected/At Risk (%),Cohort 3 400 mg QD,(14.29%)
same,Type 2 diabetes mellitus: # Events,Cohort 3 400 mg QD,0
same,Type 2 diabetes mellitus: Affected/At Risk,Cohort 3 400 mg QD,0/21
same,Type 2 diabetes mellitus: Affected/At Risk (%),Cohort 3 400 mg QD,(0%)
same,Ulcerative keratitis: # Events,Cohort 3 400 mg QD,0
same,Ulcerative keratitis: Affected/At Risk,Cohort 3 400 mg QD,0/21
same,Ulcerative keratitis: Affected/At Risk (%),Cohort 3 400 mg QD,(0%)
same,Upper respiratory tract infection: # Events,Cohort 3 400 mg QD,9
same,Upper respiratory tract infection: Affected/At Risk,Cohort 3 400 mg QD,7/21
same,Upper respiratory tract infection: Affected/At Risk (%),Cohort 3 400 mg QD,(33.33%)
same,Upper-airway cough syndrome: # Events,Cohort 3 400 mg QD,1
same,Upper-airway cough syndrome: Affected/At Risk,Cohort 3 400 mg QD,1/21
same,Upper-airway cough syndrome: Affected/At Risk (%),Cohort 3 400 mg QD,(4.76%)
same,Urinary retention: # Events,Cohort 3 400 mg QD,0
same,Urinary retention: Affected/At Risk,Cohort 3 400 mg QD,0/21
same,Urinary retention: Affected/At Risk (%),Cohort 3 400 mg QD,(0%)
same,Urinary tract infection: # Events,Cohort 3 400 mg QD,0
same,Urinary tract infection: Affected/At Risk,Cohort 3 400 mg QD,0/21
same,Urinary tract infection: Affected/At Risk (%),Cohort 3 400 mg QD,(0%)
same,Urinary tract pain: # Events,Cohort 3 400 mg QD,1
same,Urinary tract pain: Affected/At Risk,Cohort 3 400 mg QD,1/21
same,Urinary tract pain: Affected/At Risk (%),Cohort 3 400 mg QD,(4.76%)
same,Urine output decreased: # Events,Cohort 3 400 mg QD,0
same,Urine output decreased: Affected/At Risk,Cohort 3 400 mg QD,0/21
same,Urine output decreased: Affected/At Risk (%),Cohort 3 400 mg QD,(0%)
same,Vascular access complication: # Events,Cohort 3 400 mg QD,0
same,Vascular access complication: Affected/At Risk,Cohort 3 400 mg QD,0/21
same,Vascular access complication: Affected/At Risk (%),Cohort 3 400 mg QD,(0%)
same,Vertigo: # Events,Cohort 3 400 mg QD,0
same,Vertigo: Affected/At Risk,Cohort 3 400 mg QD,0/21
same,Vertigo: Affected/At Risk (%),Cohort 3 400 mg QD,(0%)
same,Vision blurred: # Events,Cohort 3 400 mg QD,4
same,Vision blurred: Affected/At Risk,Cohort 3 400 mg QD,4/21
same,Vision blurred: Affected/At Risk (%),Cohort 3 400 mg QD,(19.05%)
same,Vomiting: # Events,Cohort 3 400 mg QD,4
same,Vomiting: Affected/At Risk,Cohort 3 400 mg QD,4/21
same,Vomiting: Affected/At Risk (%),Cohort 3 400 mg QD,(19.05%)
same,Weight decreased: # Events,Cohort 3 400 mg QD,4
same,Weight decreased: Affected/At Risk,Cohort 3 400 mg QD,2/21
same,Weight decreased: Affected/At Risk (%),Cohort 3 400 mg QD,(9.52%)
same,Weight increased: # Events,Cohort 3 400 mg QD,4
same,Weight increased: Affected/At Risk,Cohort 3 400 mg QD,1/21
same,Weight increased: Affected/At Risk (%),Cohort 3 400 mg QD,(4.76%)
same,White blood cell count decreased: # Events,Cohort 3 400 mg QD,2
same,White blood cell count decreased: Affected/At Risk,Cohort 3 400 mg QD,1/21
same,White blood cell count decreased: Affected/At Risk (%),Cohort 3 400 mg QD,(4.76%)
same,"ALT/AST increased all grade, No.",Cohort 3 400 mg QD n=21,2
same,"ALT/AST increased grade ≥3, No.",Cohort 3 400 mg QD n=21,0
same,"Anemia grade ≥3, No.",Cohort 3 400 mg QD n=21,0
same,"Any AE, No. of patients",Cohort 3 400 mg QD n=21,16
same,"Cough all grade, No.",Cohort 3 400 mg QD n=21,7
same,"Death, No.",Cohort 3 400 mg QD n=21,2
same,"Diarrhea all grade, No.",Cohort 3 400 mg QD n=21,7
same,"Drug-related AE, No.",Cohort 3 400 mg QD n=21,14
same,"Drug-related SAE, No.",Cohort 3 400 mg QD n=21,0
same,"Dyspnea all grade, No.",Cohort 3 400 mg QD n=21,7
same,"Dyspnea grade ≥3, No.",Cohort 3 400 mg QD n=21,4
same,"Fatigue all grade, No.",Cohort 3 400 mg QD n=21,9
same,"Grade ≥3 AE, No.",Cohort 3 400 mg QD n=21,14
same,"Headache all grade, No.",Cohort 3 400 mg QD n=21,6
same,"Hyperglycemia grade ≥3, No.",Cohort 3 400 mg QD n=21,2
same,"Hypertension all grade, No.",Cohort 3 400 mg QD n=21,4
same,"Hypoxia grade ≥3, No.",Cohort 3 400 mg QD n=21,2
same,"Lung infection or pneumonia grade ≥3, No.",Cohort 3 400 mg QD n=21,2
same,"Nausea all grade, No.",Cohort 3 400 mg QD n=21,8
same,"Peripheral edema all grade, No.",Cohort 3 400 mg QD n=21,6
same,"SAE, No.",Cohort 3 400 mg QD n=21,12
same,"URI all grade, No.",Cohort 3 400 mg QD n=21,7
same,Cytomegalovirus (CMV) infection or reactivation,Example 1,no reported CMV infection or reactivation
same,Patients who discontinued because of potentially drug-related AEs,Example 1,Three
same,Cytomegalovirus (CMV) infection or reactivation,"Example 1, listed as belumosudil",No cases
same,"AE cough, patients",Total N=54,22%
same,"AE diarrhea, patients",Total N=54,33%
same,"AE dyspnea, patients",Total N=54,30%
same,"AE fatigue, patients",Total N=54,33%
same,"AE headache, patients",Total N=54,24%
same,"AE hypertension, patients",Total N=54,20%
same,"AE increased liver function tests, patients",Total N=54,33%
same,"AE nausea, patients",Total N=54,33%
same,"AE peripheral edema, patients",Total N=54,24%
same,"AE upper respiratory infection, patients",Total N=54,46%
same,"ALT/AST increased all grade, No.",Total N=54,18
same,"ALT/AST increased grade ≥3, No.",Total N=54,4
same,"Anemia grade ≥3, No.",Total N=54,3
same,"Any AE, No. of patients",Total N=54,53
same,"Cough all grade, No.",Total N=54,12
same,"Death, No.",Total N=54,2
same,"Diarrhea all grade, No.",Total N=54,18
same,"Drug-related AE, No.",Total N=54,30
same,"Drug-related SAE, No.",Total N=54,0
same,"Dyspnea all grade, No.",Total N=54,16
same,"Dyspnea grade ≥3, No.",Total N=54,7
same,"Fatigue all grade, No.",Total N=54,18
same,"Grade ≥3 AE, No.",Total N=54,33
same,"Grade ≥3 AE, patients",Total N=54,Sixty-one
same,"Grade ≥3 cytopenias, patients",Total N=54,4%
same,"Grade ≥3 dyspnea, patients",Total N=54,13%
same,"Grade ≥3 hyperglycemia, patients",Total N=54,7%
same,"Grade ≥3 hypoxia, patients",Total N=54,7%
same,"Grade ≥3 increased liver function tests, patients",Total N=54,7%
same,"Headache all grade, No.",Total N=54,13
same,"Hyperglycemia grade ≥3, No.",Total N=54,4
same,"Hypertension all grade, No.",Total N=54,11
same,"Hypoxia grade ≥3, No.",Total N=54,4
same,"Lung infection or pneumonia grade ≥3, No.",Total N=54,5
same,"Nausea all grade, No.",Total N=54,18
same,"Peripheral edema all grade, No.",Total N=54,13
same,"SAE, No.",Total N=54,23
same,"Serious AE dyspnea, patients",Total N=54,7%
same,"Serious AE hypoxia, patients",Total N=54,4%
same,"Serious AE influenza-like illness, patients",Total N=54,4%
same,"Serious AE lung infection, patients",Total N=54,6%
same,"Serious AEs, patients",Total N=54,43%
same,"URI all grade, No.",Total N=54,25
same,Patients with dose interruptions,all,41%
same,Patients with dose reductions,all,9%
same,Patients who died during the study,"all in cohort 3, none attributed to belumosudil",Four
same,Eyelid margin crusting: Affected/At Risk,in vivo,1/17 and 0/16 and 0/21
same,Median relative dose intensity,overall,98%
same,Median duration of dose interruption,"range, 2-39 days",10 days
same,Median duration of dose reduction,"range, 21-859 days",97 days

# From patent publication US20250255867A1 (Kadmon Corporation, LLC, priority 2022, published 2025)
